# Measurements as given in patent publication US20130005802A1, “TREATMENT OF WNT/FRIZZLED-RELATED DISEASES” (priority 2009, published 2013).
# Read-outs that look alike come from different tables or passages of the source.
# Assays:
# Frizzled1-GFP = Frizzled1-GFP (Rattus norvegicus, UniProt Q08463); test: Co-localization of internalized Frizzled1-GFP with β2-adrenergic receptor-RFP or Transferrin; format: cell-based
# Description: To remove remaining surface bound Tf, the cells were exposed to unlabeled transferrin (10 mg/mL) for 2 min at room temperature. The cells were then fixed with 4% paraformaldehye, and imaged with a LSM510 confocal microscope (Zeiss).
# Many classes of membrane receptors internalize in clathrin coated pits. In particular, β2-adrenergic receptors are prototypical for clathrin-dependent internalization of G protein-coupled receptors (Barak, L. S., et al. Mol Pharmacol 1997, 51, 177-184; Goodman, O. B., Jr., et al. Nature 1996, 383, 447-450, both are incorporated herein by reference in their entireties), and Transferrin is a well-documented standard for clathrin-mediated internalization in general (Mellman, I. Annu Rev Cell Dev Biol 1996, 12, 575-625, incorporated herein by reference). It was examined whether internalized Frizzled1-GFP co-localizes with either β2-adrenergic receptor-RFP or Transferrin in intracellular vesicles. FIG. 6A-6C show confocal images of unstimulated U2OS cells expressing both β2-adrenergic receptor-RFP (β2AR-RFP, FIG. 6A) and Frizzled1 receptors (Fzd1-GFP, FIG. 6B) prior to activation.
# The merged image is presented in (FIG. 6L), wherein arrowheads indicate co-localized vesicles.
# [1] = tested on: LEF/TCF transcription factor reporter (TOPFlash); test: TOPFlash reporter assay in HEK293 cells; format: cell-based; settings: Homo sapiens
# Description: To obtain a Frizzled1-GFP stable cell line (Fzd1GFP-U2OS), U2OS cells were transfected with pCS2ratFrizzled1-GFP and pLKO.1 (10:1 ratio by weight), using the Nucleofection transfection protocol from Amaxa, and stable receptor expressing clones were selected using 1.5 μg/mL puromycin in the culture medium. For generating TOPFlash stable cell lines, HEK293 cells were transfected with p8xTOPFlash, the Renilla luciferase plasmid, and pLKO.1 at a ratio by weight of 10:3:1 and stable clones selected using 1 μg/mL puromycin in the growth medium. pLKO.1 was used to confer puromycin resistance to the stable clones.
# For the TOPFlash Luciferase assay the TOPFlash stable cells were seeded in 150 μL growing medium/well in 96-well plates at 100% confluency. Fifty microliters of conditioned medium containing the chemical compounds to be tested or DMSO were added to each well. After an 8 hr treatment, the cells were then washed once with PBS, and lysed with 80 μL MPER solution (Pierce, Rockford, Ill.). Thirty microliters of cell lysate were used for measuring luciferase activity in a 96-well plate reader (FluoStar Optima, BMG Labtech, Chicago, Ill.).
# LEF/TCF transcription factor reporter (TOPFlash) assay is a general readout for canonical Wnt signaling pathways. […] A Renila luciferase plasmid was also generated to serve as an internal control.
# The average TOPFlash reporter activity of Wnt3A plus DMSO treatment was set as 100%, and the relative reporter activity of Wnt3A plus the indicated concentration of niclosmide was calculated and plotted.
# The compounds shown in Table 2 were purchased from Sigma-Aldrich (St. Louis, Mo.) or Chembridge (San Diego, Calif.). The activity of each of the compounds as a negative modulator of the Wnt/Frizzled signaling pathway was examined using the Top-flash assay, as described above.
# HCT116 cells = test: MTT assay, HCT116; format: cell-based
# Description: AsPC-1 tumor cells were cultured with T cells at a 1:5 ratio for 7 days in the presence of MEDI-565 or Cont BiTE (100 ng/mL). On day 7, floating cells were discarded and only adherent AsPC-1 cells were harvested with 0.05% trypsin/EDTA and washed with PBS three times. 1×10^4 AsPC-1 tumor cells were added to each well of 96 well flat bottom plates in 200 μL of complete RPMI1640 medium. The cells were allowed to adhere to the plates overnight at 37° C. (day 0) and were further incubated for 1, 2, 4 or 7 days. 20 μL of 10×MTT (3-[4,5-dimethylthiazol-2-yl]-2,5-diphenyl-tetrazolium bromide, 5 mg/mL) solution was added to each well, and incubated at 37° C. for 2 hr. The adherent cells were lysed with 150 μL of dimethyl sulfoxide (DMSO) and the optical density (OD) at 550 nm was measured.
# Colorectal cancer cell lines were incubated in 96-well flat-bottomed plates at 5,000 cells per well in 200 μL of complete RPMI1640 medium. The cells were allowed to adhere to the plates overnight at 37° C. (day 0). […] Then 20 μL of 10×MTT solution was added to each well and incubated at 37° C. for 2 hr. The adherent cells were lysed with 150 μL of DMSO, and then optical density (OD) at 562 nm was measured. DMSO or culture medium was used as a control.
# MTT assay was performed at each time point.
# β-catenin = test: Western blot of cytosolic β-catenin in colorectal cancer cells; format: cell-based
# Description: CRC explants and colorectal cancer cell lines were cultured in 6-well plates. […] After washing cells with PBS three times, hypotonic lysis buffer consist of 10 mM Tris-HCl, pH7.4 and 0.2 mM MgCl2, supplemented with 1× Halt Protease and Phosphatase Inhibitor Cocktail (Thermo Scientific Pierce Protein Research Products, Rockford, Ill.) were applied to make cell lyates for Western Blot.
# After washing cells with PBS, cell lysates were made with hypotonic lysis buffer.
# in vivo = settings: NOD/SCID, mouse, po, 200 mg/kg
# Description: Blood samples were obtained from vena cava following euthanasia by ketamin injection at predose and at 0.25, 0.5, 0.75, 1, 1.5, 4, 8, 12, 24 hr after drug administration. Blood samples were put into eppendorf tubes containing 10 μL of heparin (1000 U/mL), centrifuged at 1,200 g for 10 min. Plasma were collected and frozen at −20° C. until HPLC analysis.
# The Calibration curve was linear from 0.2 ng/mL (lower limit of quantitation, LLOQ) to 300 ng/mL.
# Blood samples were obtained from vena cava at predose and at 0.25, 0.5, 0.75, 1, 1.5, 4, 8, 12, 24 hr after drug administration. Plasma was collected by the centrifugation (1,200 g, 10 min) of blood with heparin (100 U/mL).
# Sequence of Frizzled1-GFP (Q08463 69-641): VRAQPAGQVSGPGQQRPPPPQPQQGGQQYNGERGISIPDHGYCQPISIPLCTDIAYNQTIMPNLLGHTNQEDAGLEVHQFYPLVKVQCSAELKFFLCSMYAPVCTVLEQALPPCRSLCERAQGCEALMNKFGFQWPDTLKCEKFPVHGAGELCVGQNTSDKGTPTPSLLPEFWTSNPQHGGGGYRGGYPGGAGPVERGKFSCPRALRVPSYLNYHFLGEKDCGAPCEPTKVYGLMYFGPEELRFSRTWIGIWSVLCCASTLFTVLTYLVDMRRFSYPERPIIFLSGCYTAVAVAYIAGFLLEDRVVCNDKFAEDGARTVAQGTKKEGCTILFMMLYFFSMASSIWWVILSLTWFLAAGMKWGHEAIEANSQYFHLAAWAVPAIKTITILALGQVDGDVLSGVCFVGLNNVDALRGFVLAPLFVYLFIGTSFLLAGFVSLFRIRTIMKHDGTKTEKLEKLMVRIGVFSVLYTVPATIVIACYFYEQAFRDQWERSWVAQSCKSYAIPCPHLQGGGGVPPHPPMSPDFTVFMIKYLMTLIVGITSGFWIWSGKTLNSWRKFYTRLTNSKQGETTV
smiles,measurement,setting,value
O=C(Nc1ccc([N+](=O)[O-])cc1Cl)c1cc(Cl)ccc1O [niclosamide],co-localization of Fzd1-GFP with β2AR-RFP,"Frizzled1-GFP; […] niclosamide and 0.1 μM isoproterenol, 2 hr or 6 hr",multiple overlapping intracellular distributions
same,co-localization of internalized Transferrin with internalized Frizzled1,"Frizzled1-GFP; […] niclosamide, Transferrin 100 μg/mL, 2 hr",significant co-localization
same,IC50,"[1]; Wnt3A conditioned medium, read-out: IC50 of inhibition of Wnt3A stimulated TOPFlash reporter activity",500 ± 50 nM
same,IC50,[1]; read-out: TopFlash assay: IC50,< 1000 nM
same,cytotoxic effect compared with 10 μM oxaliplatin,"HCT116 cells; 2 μM, 72 hr",stronger cytotoxic effect
same,"proliferation (MTT, OD 562 nm), sensitivity among three cell lines","HCT116 cells; 0.4, 2, 10 μM, 72 hr",most sensitive
same,% proliferation over time,"HCT116 cells; 0.4, 2, 10 μM, 24-96 hr",sensitive
same,concentration at which cells were killed over time,HCT116 cells; 24-96 hr,0.4 µM
same,cytosolic β-catenin expression,"β-catenin; CRC057 and HCT116, 1, 5, 10 μM, 18 hr",downregulated
same,cytosolic β-catenin expression,β-catenin; HT29 cells,milder change
same,Cmax,in vivo,894 ng/mL
same,Elimination rate (z-lambda),in vivo,0.217 h⁻¹
same,Tmax,in vivo,15 min
same,concentration at 1.5 hr,in vivo,77.6 ng/mL
same,half-life,in vivo,192 min
